# Laboratory results reported in patent publication US20160009752A1, “[…]-OXIMINO-AMINOALKYLETHERS AND PROCESS FOR PREPARATION THEREOF, USEFUL AS ANTIDIABETIC AND […] AGENTS” (COUNCIL OF SCIENTIFIC & INDUSTRIAL RESEARCH, priority 2013, published 2016).
# How the values were obtained:
# Type in all cases: in vivo
# sucrose loaded rat = experiment: Sucrose loaded rat model (SLM), oral tolerance test; parameters: % Antihyperglycemic activity SLM: concentration or dose not given beside the values
# From the text: On the day of experiment blood glucose of all the overnight fasted animals was checked by Glucostrips (Roche) using Glucometer (ACCU-CHEK II; Roche Diagnostics, USA). […] Animals were divided into groups consisting of five animals in each. […] The test compounds and standard drug was always prepared in the vehicle 1% gum acacia. […] Food (not water) was removed from the cages during the experimental period. […] Comparing the AUC of test sample or drug treated groups compared to control group determined the percent improvement in OGTT by test sample and standard drugs and termed as antihyperglycaemic activity. Statistical analysis between the groups was done by employing Students t test
# [1] = test system: STZ-induced diabetic rats; experiment: Streptozotocin-induced diabetic rat model (STZ); settings: 100 mg/kg
# Protocol: Male albino rats (Sprague Dawley Strain) of body weight 160±20 g were procured from the colony of CDRI Animal House. 4 to 5 animals were kept in one polypropylene cage and acclimatized for one week in the new environment. The animals were made diabetic by injecting streptozotocin (STZ) intraperitoneally to the overnight starved animals at a dose of 60 mg/kg prepared in 100 mM citrate buffer (pH 4.5). Fasting blood glucose level of each animal was measured after 48 hours post STZ injection by Glucostrips (Roche) using Glucometer (ACCU-CHEK II; Roche Diagnostics, USA) and animals showing blood glucose level above 280 mg/dl were considered as diabetic. The diabetic rats with fasting blood glucose values varying between 280-450 mg/dl were included in this study. Animals were divided into groups consisting of five animals in each. Group one was considered as a control group, where as the other groups were termed as experimental groups. Rats of experimental group were usually given 100 mg/kg body weight of the test samples unless stated otherwise and standard drug i.e. metformin, respectively. The test samples and standard drug i.e. metformin was always prepared in the vehicle 1% gum acacia. 30 min post administration of the test samples/vehicle/standard drug, blood glucose levels of the animals of all the groups were measured at 30, 60, 90, 120, 180, 240, 300 and 1440 min. Food (not water) was removed from the cages during the experimental period. A plot was drawn between time and blood glucose levels on x and y axis, respectively and the area under curve (AUC) between 0 to 300 min were calculated of each group. The percent decline in AUC of the experiment group compared to sham treated control group termed as % antihyperglycaemic activity. Statistical comparison between the groups was done by employing Student's ‘t’ test.
# db/db mice = experiment: db/db mice: blood glucose, OGTT, serum lipid and insulin; settings: for decrease in plasma insulin levels / enhancement of HDL-cholesterol level / lowering of serum triglycerides level (TG) / lowering of total cholesterol (T-Chol) level: 15 days
# Protocol: Male C57BL/KsJ-db/db mice (8 to 12 weeks old, 35-45 g body weight) were procured from National Animal Laboratory Centre (NALC) of Central Drug Research Institute (CDRI), Lucknow, India. Animals were housed in polypropylene cages, in controlled environment (temperature 25±2° C.; humidity 50-60%; light 300 lux at floor level with regular 12 h light-12 h dark cycle; noise level 50 decibel; ventilation 10-15 air changes per hour). They were provided with a standard laboratory diet (Dayal Industry, Barabanki, Lucknow) unless stated otherwise and had free access to water. The animals were allocated into groups of 5 animals in each. Prior to start of the test sample feeding, a vehicle training period was followed from day −3 to day 0 during which all the animals were given vehicle (1% gum acacia) at a dose volume of 10 ml/kg body weight. At day 0 the animals having blood glucose level between 180 to 300 mg/di were selected and divided into three groups containing 5 animals in each. One group was considered as control group while the other group one was treatment group. The treatment groups were given suspensions of 14b at 1.0 and 3.0 mg/kg body weight, dose, respectively. The control group was given an equal amount of vehicle. All the animals had free access to fresh water and normal diet. Random blood glucose of each mouse was checked daily at 11.00. […] Blood has been withdrawn from the retro-orbital plexus of mice eye for the estimation of lipid profile and insulin.
# In type 2 diabetes, elevated blood glucose level due to defect in peripheral glucose disposal results in hyperglycaemia. To observe the improvement on hyperglycaemia 14b was orally gavaged for 15 consecutive days and after dosing blood glucose of control and treated group were measured.
structure (smiles),measurement,setting,value
"C/C(=N\OCCN1CCCCC1)[C@H]1CC[C@H]2[C@@H]3CC=C4C[C@@H](O)CC[C@]4(C)[C@H]3CC[C@]12C [Compound 14b, 3β-Hydroxy-pregna-5-en-20-one-O-(2-piperidin-1-yl-ethyl)-oxime]","Blood glucose profile, 0 min post glucose load",sucrose loaded rat; 100 mg/kg,94.2 ± 2.6 mg/dL
same,"Blood glucose profile, 30 min post glucose load",sucrose loaded rat; 100 mg/kg,120.8 ± 2.1 mg/dL
same,"Blood glucose profile, 60 min post glucose load",sucrose loaded rat; 100 mg/kg,101.4 ± 2.9 mg/dL
same,"Blood glucose profile, 90 min post glucose load",sucrose loaded rat; 100 mg/kg,89.4 ± 3.3 mg/dL
same,"Blood glucose profile, 120 min post glucose load",sucrose loaded rat; 100 mg/kg,69.4 ± 2.3 mg/dL
same,% Antihyperglycemic activity SLM,"sucrose loaded rat; Table 2, sucrose loaded rat",24.4%
same,"anti-diabetic activity, in words",sucrose loaded rat; all the models including db/+ mice models,better anti-diabetic activity
same,"Blood glucose level, 0 min post sucrose load",[1],357.4 ± 17.9 mg/dL
same,"Blood glucose level, 30 min post sucrose load",[1],353.8 ± 6.3 mg/dL
same,"Blood glucose level, 60 min post sucrose load",[1],387.0 ± 20.8 mg/dL
same,"Blood glucose level, 90 min post sucrose load",[1],374.4 ± 23.1 mg/dL
same,"Blood glucose level, 120 min post sucrose load",[1],375.0 ± 20.2 mg/dL
same,"Blood glucose level, 180 min post sucrose load",[1],366.6 ± 16.7 mg/dL
same,"Blood glucose level, 240 min post sucrose load",[1],333.0 ± 11.7 mg/dL
same,"Blood glucose level, 300 min post sucrose load",[1],301.4 ± 12.1 mg/dL
same,"Blood glucose level, 1440 min post sucrose load",[1],408.0 ± 17.1 mg/dL
same,decrease in plasma insulin levels,db/db mice; 1.0 mg/kg oral,4.03%
same,enhancement of HDL-cholesterol level,db/db mice; 1.0 mg/kg oral,6.18%
same,lowering of serum triglycerides level (TG),db/db mice; 1.0 mg/kg oral,13.8%
same,lowering of total cholesterol (T-Chol) level,db/db mice; 1.0 mg/kg oral,13.3%
same,decrease in plasma insulin levels,db/db mice; 3.0 mg/kg oral,8.06%
same,enhancement of HDL-cholesterol level,db/db mice; 3.0 mg/kg oral,13.6%
same,lowering of serum triglycerides level (TG),db/db mice; 3.0 mg/kg oral,18.9%
same,lowering of total cholesterol (T-Chol) level,db/db mice; 3.0 mg/kg oral,16.7%
same,"blood glucose levels vs vehicle treated group, in words","db/db mice; 1.0 and 3.0 mg/kg oral, 15 consecutive days, FIG. 8",decline in their blood glucose levels
same,% Antihyperglycaemic activity (OGTT improvement),"db/db mice; day 10th, 1.0 mg/kg",10.3%
same,"Blood glucose profile, 0 min post glucose load","db/db mice; day 10th, 1.0 mg/kg",211.6 ± 11.8 mg/dL
same,"Blood glucose profile, 30 min post glucose load","db/db mice; day 10th, 1.0 mg/kg",559.8 ± 24.8 mg/dL
same,"Blood glucose profile, 60 min post glucose load","db/db mice; day 10th, 1.0 mg/kg",568.0 ± 12.9 mg/dL
same,"Blood glucose profile, 90 min post glucose load","db/db mice; day 10th, 1.0 mg/kg",502.8 ± 23.6 mg/dL
same,"Blood glucose profile, 120 min post glucose load","db/db mice; day 10th, 1.0 mg/kg",437.8 ± 14.1 mg/dL
same,decline in fasting blood glucose level,"db/db mice; day 10th, 1.0 mg/kg",~21.2%
same,% Antihyperglycaemic activity (OGTT improvement),"db/db mice; day 10th, 3.0 mg/kg",15.1%
same,"Blood glucose profile, 0 min post glucose load","db/db mice; day 10th, 3.0 mg/kg",190.2 ± 12.9 mg/dL
same,"Blood glucose profile, 30 min post glucose load","db/db mice; day 10th, 3.0 mg/kg",542.2 ± 24.1 mg/dL
same,"Blood glucose profile, 60 min post glucose load","db/db mice; day 10th, 3.0 mg/kg",523.2 ± 22.7 mg/dL
same,"Blood glucose profile, 90 min post glucose load","db/db mice; day 10th, 3.0 mg/kg",482.0 ± 20.5 mg/dL
same,"Blood glucose profile, 120 min post glucose load","db/db mice; day 10th, 3.0 mg/kg",414.0 ± 9.4 mg/dL
same,decline in fasting blood glucose level,"db/db mice; day 10th, 3.0 mg/kg",~29.1%
same,% Antihyperglycaemic activity (OGTT improvement),"db/db mice; day 15th, 1.0 mg/kg",16.9%
same,"Blood glucose profile, 0 min post glucose load","db/db mice; day 15th, 1.0 mg/kg",183.6 ± 7.86 mg/dL
same,"Blood glucose profile, 30 min post glucose load","db/db mice; day 15th, 1.0 mg/kg",499.2 ± 36.1 mg/dL
same,"Blood glucose profile, 60 min post glucose load","db/db mice; day 15th, 1.0 mg/kg",560.6 ± 14.6 mg/dL
same,"Blood glucose profile, 90 min post glucose load","db/db mice; day 15th, 1.0 mg/kg",468.8 ± 19.5 mg/dL
same,"Blood glucose profile, 120 min post glucose load","db/db mice; day 15th, 1.0 mg/kg",383.8 ± 8.46 mg/dL
same,decline in fasting blood glucose level,"db/db mice; day 15th, 1.0 mg/kg",around 25.5%
same,% Antihyperglycaemic activity (OGTT improvement),"db/db mice; day 15th, 3.0 mg/kg",24.5%
same,"Blood glucose profile, 0 min post glucose load","db/db mice; day 15th, 3.0 mg/kg",160.2 ± 6.88 mg/dL
same,"Blood glucose profile, 30 min post glucose load","db/db mice; day 15th, 3.0 mg/kg",458.8 ± 16.6 mg/dL
same,"Blood glucose profile, 60 min post glucose load","db/db mice; day 15th, 3.0 mg/kg",513.2 ± 13.1 mg/dL
same,"Blood glucose profile, 90 min post glucose load","db/db mice; day 15th, 3.0 mg/kg",420.0 ± 13.2 mg/dL
same,"Blood glucose profile, 120 min post glucose load","db/db mice; day 15th, 3.0 mg/kg",348.0 ± 13.2 mg/dL
same,decline in fasting blood glucose level,"db/db mice; day 15th, 3.0 mg/kg",~35.1%
